# In US11174260B2, “Compounds and methods for the treatment of parasitic diseases” (THE BROAD INSTITUTE, INC., priority 2017, dated 2021):
# Like-named read-outs stand apart in the source and are kept apart here.
# Test system: P. falciparum Dd2
# Assay: In vitro P. falciparum blood-stage culture and assay
# Assay type: cell-based
# Settings: 72 h incubation, SYBR Green I readout, read-out: Pf Dd2
# Description: Strains of P. falciparum (Dd2, 3D7, D6, K1, NF54, V1/3, HB3, 7G8, FCB and TM90C2B) were obtained from the Malaria Research and Reference Reagent Resource Center (MR4). P. falciparum isolates were maintained with O-positive human blood in an atmosphere of 93% N2, 4% CO2, 3% O2 at 37° C. in complete culturing medium (10.4 g/L RPMI 1640, 5.94 g/L HEPES, 5 g/L albumax II, 50 mg/L hypoxanthine, 2.1 g/L sodium bicarbonate, 10% human serum and 43 mg/L gentamicin). Parasites were cultured in medium until parasitaemia reached 3-8%. Parasitaemia was determined by checking at least 500 red blood cells from a Giemsa-stained blood smear. For the compound screening, a parasite dilution at 2.0% parasitaemia and 2.0% haematocrit was created with medium. 25 μl of medium was dispensed into 384-well black, clear-bottom plates and 100 nl of each compound in DMSO was transferred into assay plates along with the control compound (mefloquine). Next, 25 μl of the parasite suspension in medium was dispensed into the assay plates giving a final parasitaemia of 1% and a final haematocrit of 1%. The assay plates were incubated for 72 h at 37° C. 10 μl of detection reagent consisting of 10×SYBR Green I (Invitrogen; supplied in 10,000× concentration) in lysis buffer (20 mM Tris-HCl, 5 mM EDTA, 0.16% (w/v) Saponin, 1.6% (v/v) Triton X-100) was dispensed into the assay plates. For optimal staining, the assay plates were left at room temperature for 24 h in the dark. The assay plates were read with 505 dichroic mirrors with 485 nm excitation and 530 nm emission settings in an Envision (PerkinElmer).
# [1] = Plasmodium falciparum, DD2, 72 h
SMILES,EC50 [1],EC50
"CCN(CC)C[C@@H]1[C@H](c2ccc(C#Cc3ccccc3)cc2)[C@@H]2CN(C(=O)Nc3ccc(OC)cc3)C[C@@H](O)[C@@H](O)CN12 [Example E9, (3S,4R,8R,9S,10S)-10-(diethylaminomethyl)-3,4-dihydroxy-N-(4-methoxyphenyl)-9-[4-(2-phenylethynyl)phenyl]-1,6-diazabicyclo[6.2.0]decane-6-carboxamide]",< 0.05 µM,
"COc1ccc(NC(=O)N2C[C@H]3OCCO[C@H]3CN3[C@H](CN(C)C)[C@H](c4ccc(C#Cc5ccccc5)cc4)[C@@H]3C2)cc1 [Example E14, (4aR,7aR,8S,9S,11aS)-9-((dimethylamino)methyl)-N-(4-methoxyphenyl)-8-(4-(phenylethynyl)phenyl)octahydro-2H-azeto[1,2-a][1,4]dioxino[2,3-f][1,4]diazocine-6(3H)-carboxamide]",< 0.05 µM,
"CN(C)C[C@@H]1[C@H](c2ccc(C#Cc3ccccc3)cc2)[C@@H]2CN(C(=O)Nc3ccc(OC4CC4)cc3)C[C@@H](O)[C@@H](O)CN12 (single isomer, unassigned) [Example E1]",< 0.05 µM,
"COc1ccc(NC(=O)N2CCC(O)CN3[C@H](CN(C)C)[C@H](c4ccc(C#Cc5ccccc5)cc4)[C@@H]3C2)cc1 (single isomer, unassigned) [Example E16]",,> 0.25 µM
"COc1ccc(NC(=O)N2C[C@@H](N(C)C)CCN3[C@H](CO)[C@H](c4ccc(C#Cc5ccccc5)cc4)[C@@H]3C2)cc1 [Example E3, (4S,8R,9R,10S)-4-(dimethylamino)-10-(hydroxymethyl)-N-(4-methoxyphenyl)-9-(4-(phenylethynyl)phenyl)-1,6-diazabicyclo[6.2.0]decane-6-carboxamide]",> 0.25 µM,
"COc1ccc(NC(=O)N2C[C@@H](O)[C@@H](O)CN3[C@H](CN(C)C)[C@H](c4ccc(C#Cc5cccc(F)c5F)cc4)[C@@H]3C2)cc1 [Example E12, (3S,4R,8R,9S,10S)-9-(4-((2,3-difluorophenyl)ethynyl)phenyl)-10-((dimethylamino)methyl)-3,4-dihydroxy-N-(4-methoxyphenyl)-1,6-diazabicyclo[6.2.0]decane-6-carboxamide]",0.05 to 0.25 µM,
"COc1ccc(NC(=O)N2C[C@H](O)[C@H](O)CN3[C@H](CN(C)C)[C@H](c4ccc(C#Cc5cccc(F)c5F)cc4)[C@@H]3C2)cc1 [Example E13, (3R,4S,8R,9S,10S)-9-[4-[2-(2,3-difluorophenyl)ethynyl]phenyl]-10-[(dimethylamino)methyl]-3,4-dihydroxy-N-(4-methoxyphenyl)-1,6-diazabicyclo[6.2.0]decane-6-carboxamide]",< 0.05 µM,
"COc1ccc(NC(=O)N2C[C@H](O)[C@H](O)CN3[C@H](CN(C)C)[C@H](c4ccc(C#Cc5ccccc5F)cc4)[C@@H]3C2)cc1 [Example E8, (3R,4S,8R,9S,10S)-10-[(dimethylamino)methyl]-9-[4-[2-(2-fluorophenyl)ethynyl]phenyl]-3,4-dihydroxy-N-(4-methoxyphenyl)-1,6-diazabicyclo[6.2.0]decane-6-carboxamide]",0.05 to 0.25 µM,
"COc1ccc(NC(=O)N2C[C@@H](O)[C@@H](O)CN3[C@H](CN(C)C)[C@H](c4ccc(C#Cc5ccccc5)cc4)[C@@H]3C2)cc1 [Example E5, (3S,4R,8R,9S,10S)-10-((dimethylamino)methyl)-3,4-dihydroxy-N-(4-methoxyphenyl)-9-(4-(phenylethynyl)phenyl)-1,6-diazabicyclo[6.2.0]decane-6-carboxamide]",< 0.05 µM,
"COc1ccc(NC(=O)N2C[C@H](O)[C@H](O)CN3[C@H](CN(C)C(C)C)[C@H](c4ccc(C#Cc5ccccc5)cc4)[C@@H]3C2)cc1 [Example E11, (3R,4S,8R,9S,10S)-3,4-dihydroxy-10-[[isopropyl(methyl)amino]methyl]-N-(4-methoxyphenyl)-9-[4-(2-phenylethynyl)phenyl]-1,6-diazabicyclo[6.2.0]decane-6-carboxamide]",0.05 to 0.25 µM,
"COc1ccc(NC(=O)N2C[C@@H](OC)[C@@H](OC)CN3[C@H](CN(C)C)[C@H](c4ccc(C#Cc5ccccc5)cc4)[C@@H]3C2)cc1 [Example E2, (3S,4R,8R,9S,10S)-10-((dimethylamino)methyl)-3,4-dimethoxy-N-(4-methoxyphenyl)-9-(4-(phenylethynyl)phenyl)-1,6-diazabicyclo[6.2.0]decane-6-carboxamide]",< 0.05 µM,

# Now from value to molecule:
EC50 [1],EC50,SMILES
0.05 to 0.25 µM,,"COc1ccc(NC(=O)N2CC[C@H](N(C)C)CN3[C@H](CO)[C@H](c4ccc(C#Cc5ccccc5)cc4)[C@@H]3C2)cc1 [Example E29, (3S,8R,9R,10S)-3-(dimethylamino)-10-(hydroxymethyl)-N-(4-methoxyphenyl)-9-(4-(phenylethynyl)phenyl)-1,6-diazabicyclo[6.2.0]decane-6-carboxamide]"
< 0.05 µM,,"COc1ccc(NC(=O)N2CC(CO)CCN3[C@H](CN(C)C)[C@H](c4ccc(C#Cc5ccccc5)cc4)[C@@H]3C2)cc1 (stereo partly drawn) [Example E33, (8R,9S,10S)-10-[(dimethylamino)methyl]-4-(hydroxymethyl)-N-(4-methoxyphenyl)-9-[4-(2-phenylethynyl)phenyl]-1,6-diazabicyclo[6.2.0]decane-6-carboxamide]"
> 0.25 µM,,"COc1ccc(NC(=O)N2C[C@@H](O)[C@@H](O)CN3[C@H](CO)[C@H](c4ccc(C#Cc5cccnc5)cc4)[C@@H]3C2)cc1 [Example E22, (3S,4R,8R,9R,10S)-3,4-dihydroxy-10-(hydroxymethyl)-N-(4-methoxyphenyl)-9-(4-(pyridin-3-ylethynyl)phenyl)-1,6-diazabicyclo[6.2.0]decane-6-carboxamide]"
< 0.05 µM,,"COc1ccc(NC(=O)N2CCCC(C)N3[C@H](CN(C)C)[C@H](c4ccc(C#Cc5ccccc5)cc4)[C@@H]3C2)cc1 (stereo partly drawn) [Example E34, (8R,9S,10S)-10-((dimethylamino)methyl)-N-(4-methoxyphenyl)-2-methyl-9-(4-(phenylethynyl)phenyl)-1,6-diazabicyclo[6.2.0]decane-6-carboxamide]"
> 0.25 µM,,"COc1ccc(NC(=O)N2C[C@@H](O)CCN3[C@H](CN(C)C)[C@H](c4ccc(C#Cc5ccccc5)cc4)[C@@H]3C2)cc1 [Example E24, (4S,8R,9S,10S)-10-[(dimethylamino)methyl]-4-hydroxy-N-(4-methoxyphenyl)-9-[4-(2-phenylethynyl)phenyl]-1,6-diazabicyclo[6.2.0]decane-6-carboxamide]"
> 0.25 µM,,"COc1ccc(NC(=O)N2C[C@H](N(C)C)CCN3[C@H](CO)[C@H](c4ccc(C#Cc5ccccc5)cc4)[C@@H]3C2)cc1 [Example E30, (4R,8R,9R,10S)-4-(dimethylamino)-10-(hydroxymethyl)-N-(4-methoxyphenyl)-9-(4-(phenylethynyl)phenyl)-1,6-diazabicyclo[6.2.0]decane-6-carboxamide]"
0.05 to 0.25 µM,,"COc1ccc(NC(=O)N2CC[C@@H](N(C)C)CN3[C@H](CO)[C@H](c4ccc(C#Cc5ccccc5)cc4)[C@@H]3C2)cc1 [Example E28, (3R,8R,9R,10S)-3-(dimethylamino)-10-(hydroxymethyl)-N-(4-methoxyphenyl)-9-[4-(2-phenylethynyl)phenyl]-1,6-diazabicyclo[6.2.0]decane-6-carboxamide]"
> 0.25 µM,,"COc1ccc(NC(=O)N2CC(CN(C)C)CCN3[C@H](CN(C)C)[C@H](c4ccc(C#Cc5ccccc5)cc4)[C@@H]3C2)cc1 (stereo partly drawn) [Example E32, (8R,9S,10S)-4,10-bis[(dimethylamino)methyl]-N-(4-methoxyphenyl)-9-[4-(2-phenylethynyl)phenyl]-1,6-diazabicyclo[6.2.0]decane-6-carboxamide]"
< 0.05 µM,,"COc1ccc(NC(=O)N2CCCC(C)N3[C@H](CO)[C@H](c4ccc(C#Cc5ccccc5)cc4)[C@@H]3C2)cc1 (stereo partly drawn) [Example E35, (8R,9R,10S)-10-(hydroxymethyl)-N-(4-methoxyphenyl)-2-methyl-9-[4-(2-phenylethynyl)phenyl]-1,6-diazabicyclo[6.2.0]decane-6-carboxamide]"
0.05 to 0.25 µM,,"COc1ccc(NC(=O)N2CCC(CN(C)C)CN3[C@H](CN(C)C)[C@H](c4ccc(C#Cc5ccccc5)cc4)[C@@H]3C2)cc1 (stereo partly drawn) [Example E25, (8R,9S,10S)-3,10-bis[(dimethylamino)methyl]-N-(4-methoxyphenyl)-9-[4-(2-phenylethynyl)phenyl]-1,6-diazabicyclo[6.2.0]decane-6-carboxamide]"
> 0.25 µM,,"COc1ccc(NC(=O)N2CC(CN(C)C)CCN3[C@H](CO)[C@H](c4ccc(C#Cc5ccccc5)cc4)[C@@H]3C2)cc1 (stereo partly drawn) [Example E31, (8R,9R,10S)-4-((dimethylamino)methyl)-10-(hydroxymethyl)-N-(4-methoxyphenyl)-9-(4-(phenylethynyl)phenyl)-1,6-diazabicyclo[6.2.0]decane-6-carboxamide]"
0.05 to 0.25 µM,,"COc1ccc(NC(=O)N2C[C@H](O)[C@H](O)CN3[C@H](CO)[C@H](c4ccc(C#Cc5cccnc5)cc4)[C@@H]3C2)cc1 [Example E23, (3R,4S,8R,9R,10S)-3,4-dihydroxy-10-(hydroxymethyl)-N-(4-methoxyphenyl)-9-(4-(pyridin-3-ylethynyl)phenyl)-1,6-diazabicyclo[6.2.0]decane-6-carboxamide]"
